Target: T1, α-synuclein (α-syn) (Homo sapiens, UniProt P37840)
T1 construct: purchased rPeptide (Watkinsville, GA)
Assay: PICUP assay of α-syn oligomer formation
Assay type: biochemical
Conditions: α-syn 60 μM, compound 50 μM (~molar ratio 1:1)
Experimental: Chemical and peptide source. Dimethylsulfoxide (DMSO) and thioflavin-T (ThT) were purchased from Alfa Aesar (Ward Hill, MA). Recombinant α-synuclein (α-syn) was procured from rPeptide (WatKinsville, GA). The recombinant p-tau isoform 1N4R was prepared as published previously (Fortin et al. 2021, Sui et al. 2015, Liu et al. 2020). Concerning the preparation of tau 0N4R, a bacterial expression plasmid consisting of the vector pET30a carrying a cDNA encoding the human Tau 0N4R isoform was a kind gift of Dr. Benjamin Wolozin (Boston University). E. coli stock (Rosetta BL21 E. coli (CamR) containing pET30a [0N4R tau wt] (KanR)) was grown in LB medium supplemented with kanamycin (50 μg/mL) and chloramphenicol (50 μg/mL). Protein over-expression was induced by the addition of 1 mM IPTG for ˜18 hours at 37° C., and cells were pelleted by centrifugation at 6,000 g for 15 minutes at 4° C. The cells were resuspended in lysis buffer (10 mM Hepes, pH 7.4, 50 mM NaCl, 1 mM MgCl2, 1 mM PMSF, 1× PIC, and 0.5 mM DTT) and lysed by sonication at 30 seconds “On” and 1 minute “Off” at ˜30-45% power for ˜3-5 minutes. Lysate was centrifuged at 10,000 rpm for 10 minutes at 4° C., and supernatant was transferred with 7.8 ml (total) of 3M NaCl. The lysate was incubated for 10 minutes in 80° C. water bath, then cooled for 10 minutes in an ice bath. The lysate was centrifuged at 10,000 rpm at 4° C. for 10 minutes, and the supernatant was transferred to a new tube. The supernatant was dialyzed overnight against cation exchange buffer (50 mM MES, […], 1 mM DTT, pH 6.0). The dialysate was loaded onto a HiPrep SP HP column, and proteins were eluted with a linear gradient ranging from 50 mM to 1 M NaCl. General Characterizations. ^1H and ^13C {1H} NMR spectra were recorded using a 500 MHz Bruker instrument working at a frequency of 500 MHz for ^1H and at 126 MHz for ^13C. Chemical shifts are reported in ppm using residual solvent resonances as internal reference (δ 2.50 and δ 39.51 for ^1H and ^13C in DMSO-d6, respectively). ^1H NMR data are reported as follows. b=broad, s=singlet, d=doublet, t=triplet, q=quartet, and m=multiplet. Coupling constants are given in hertz. The purity of all compounds and synthetic intermediates was judged to be 95% or better based on ^1H NMR. IR measurements were performed in a Nicolet FTIR as thin films in the Purdue Drug Discovery facility. High-resolution mass spectrometry analyses were conducted at the MSU Mass Spectrometry facility. Thioflavin fluorescence assays. Thioflavin fluorescence assays were used to monitor fibril formation of commercial recombinant α-syn at a final concentration of 2 μM and treated with control DMSO and different compounds. The recombinant α-syn obtained from rPeptide has been validated with proper quality control to confirm the monomeric state of the protein. Kinetics of fibril formation have been performed using ThT as published previously.^6, 12, 13, 24 The fluorescence emission experiments were performed with the excitation and emission wavelengths set at 440 and 485 nm, respectively, with a Synergy HT multi-mode microplate reader (BioTek, Winooski, VT). Samples were measured in three replicates. Experiments were repeated three times using different α-syn stock solutions. For each time point, arbitrary units of fluorescence were calculated from the mean values normalized against the maximum value. The percentage of fluorescence intensity at the plateau phase in Table 1 was expressed as mean #SEM. Concerning the dose response curve depicted in FIG. 2, the data were plotted using GraphPad Prism. Photo-induced Cross-linking of Unmodified Proteins (PICUP) Assay. […] Different compounds were added to the protein solution at a final concentration of 50 μM, resulting in a molar ratio of 1:1. PICUP assays were performed with the following controls: samples without light exposition, without Ru(bpy) or ammonium persulfate, and without compound (i.e., 0.125% DMSO). […]

percentage of oligomer reduction (PICUP, relative pixel density) | effect on α-syn oligomer formation (high molecular weight bands) by PICUP | Compound
52.6% |  | O=C(Nc1ccc(NC(=O)Nc2cccc3[nH]ccc23)cc1)Nc1cccc2[nH]ccc12 [Compound 1, 3-(1H-indol-4-yl)-1-(4-{[(1H-indol-4-yl)carbamoyl]amino}phenyl)urea]
84.2% | reduced α-syn oligomer formation | S=C(Nc1ccc(NC(=S)Nc2cccc3[nH]ccc23)cc1)Nc1cccc2[nH]ccc12 [Compound 2, 3-(1H-indol-4-yl)-1-(4-{[(1H-indol-4-yl)carbamothioyl]amino}phenyl)thiourea]
91.2% | reduced α-syn oligomer formation | S=C(Nc1ccc(NC(=S)Nc2cccc3cc[nH]c23)cc1)Nc1cccc2cc[nH]c12 [Compound 8, 3-(1H-indol-7-yl)-1-(4-{[(1H-indol-7-yl)carbamothioyl]amino}phenyl)thiourea]
